Measurements taken from patent publication US6107017A, “Photographic elements containing high-boiling diester solvents” (Eastman Kodak Company, priority 1998, dated 2000).

Legend:
Type in all cases: physicochemical
[1] = Water solubility from light scattering (at 500 nm) of dispersions of the high-boiling solvent in water
Protocol: (§1) Water solubilities were obtained from plots of light scattering (at 500 nm) of dispersions of the high-boiling solvent in water versus concentration. The light scattering density goes to zero at the solubility limit, when dispersions of high-boiling solvent are diluted. […] Viscosities reported in Table I were measured using a Brookfield cone/plate viscometer. Solvents of high polarity and/or polarizability are often needed to provide suitably bathochromic hues for the types of dyes commonly encountered in color photographic materials. Dye C1, whose structure is provided after Table I, is representative of such dyes. The visible absorption maxima (Lambda max) values for C1, measured with a Perkin Elmer Lambda 2S spectrophotometer, are provided in Table I as measures of solvent polarity/polarizability.

[2] = Viscosity measured using a Brookfield cone/plate viscometer
Protocol: Water solubilities were obtained from plots of light scattering (at 500 nm) of dispersions of the high-boiling solvent in water versus concentration. The light scattering density goes to zero at the solubility limit, when dispersions of high-boiling solvent are diluted. Values of log P calculated using MEDCHEM version 3.54 are also given in Table I and serve as rough indicators of water solubility. Viscosities reported in Table I were measured using a Brookfield cone/plate viscometer. Solvents of high polarity and/or polarizability are often needed to provide suitably bathochromic hues for the types of dyes commonly encountered in color photographic materials. Dye C1, whose structure is provided after Table I, is representative of such dyes. The visible absorption maxima (Lambda max) values for C1, measured with a Perkin Elmer Lambda 2S spectrophotometer, are provided in Table I as measures of solvent polarity/polarizability.

[3] = Visible absorption maximum (Lambda max) of Dye C1 in the high-boiling solvent, as measure of solvent polarity/polarizability; conditions: Perkin Elmer Lambda 2S spectrophotometer
Protocol: as §1

[4] = Lambda max of the yellow dye produced from Coupler Y-1 on development; conditions: yellow dye from Y-1, at a blue density of about 1.0
Protocol: For this example, Coupler Y-1 (structure below) was dispersed and coated with comparative high-boiling solvent B1 and with high-boiling solvent A2 of this invention. The dispersions were prepared by adding an oil phase containing a 1:1:3 weight ratio of Y-1:high-boiling solvent: ethyl acetate to an aqueous phase containing gelatin and the dispersing agent ALKANOL XC (mixed isomers of triisopropyl-2-naphthalene sulfonic acid, sodium salt, DuPont) in a 10:1 weight ratio. The mixture was then passed through a colloid mill to disperse the oil in the aqueous phase as small particles. On coating, the ethyl acetate auxiliary solvent evaporates. […]
After hardening, samples of each of the films in Table II were given a sensitometric white light exposure and processed using the KODAK FLEXICOLOR C-41 procedure described in Table III. Measurements of status M blue density versus exposure were made for each processed film strip, and photographic contrast (gamma) was determined from the slopes of such plots. […] The gamma value of 2.45 obtained with solvent A2 of this invention in coating B is similar to the gamma value of 2.63 obtained from comparative solvent B1 in coating A. Spectra of the yellow dye produced from Y-1 on development were measured at a blue density of about 1.0 using a Perkin Elmer Lambda 2S spectrophotometer. […]

Row | SMILES | Water Solubility [1] [mg/L] | Viscosity [2] [centipoise] | Lambda max of Dye C1 [3] [nm] | Lambda max [4] [nm]
1 | Cc1cccc(C(=O)OCCC(C)OC(=O)c2cccc(C)c2)c1 (centres unmarked) [A3] | 1.9 | 295 | 672 | –
2 | CCCCC(CC)COC(=O)c1ccccc1 (centres unmarked) [B3, reference compound] | – | 6 | 661 | –
3 | CCCCOC(=O)c1ccccc1C(=O)OCCCC [B1, dibutyl phthalate, reference compound] | – | – | – | 449
4 | Cc1ccc(C(=O)OCCC(C)OC(=O)c2ccc(C)cc2)cc1 (centres unmarked) [A1] | 1.2 | 265 | 672 | –
5 | O=C(OCCc1ccccc1)c1ccccc1 [B4, reference compound] | 10 | – | – | –
6 | CCCC(COC(=O)c1ccccc1)OC(=O)c1ccccc1 (centres unmarked) [A5] | 1.5 | 122 | 673 | –
7 | CCCCC(COC(=O)c1ccccc1)OC(=O)c1ccccc1 (centres unmarked) [A2] | 1.1 | 157 | 672 | 449
8 | O=C(OCCCCCOC(=O)c1ccccc1)c1ccccc1 [A4] | 2.4 | 70 | 674 | –
